Read-outs that look alike come from different tables or passages of the source.
Columns and labels:
[1] = system: primary isolated hepatic parenchymal cells of SD rats; test: Hepatic gluconeogenesis inhibitory activity in primary hepatocytes; assay type: cell-based; conditions: for inhibition at 20 µM / inhibition at 40 µM: Rattus norvegicus, Hepatocyte, read-out: hepatic gluconeogenesis inhibitory activity
Description: In this embodiment, primary isolated hepatic parenchymal cells of SD rats (purchased from Experimental Animal Center of Southern Medical University) were used as a model, and berberine, a traditional Chinese medicine as a hypoglycemic agent, was used as a positive control to evaluate an impact of the novel triterpenoid compound (23R, 25E)-3β-hydroxy-23-methoxycucurbita-6,25-dien-5β,19-olide3-O-β-d-allopyranoside and Momordicoside G, and compositions thereof in different proportions (novel triterpenoid compound:Momordicoside G=1:0.5, 1:1.0, or 1:1.5) on hepatic gluconeogenesis, thereby further elaborating beneficial effects of the present invention. The process was as follows:
In-situ perfusion digestion was used to digest SD rat liver with type IV collagenase. After being dispersed, hepatocytes were transferred to a 49% Percoll separation solution for centrifugation. After supernatant was discarded, the cells adhered for 6 hours to a 24-well plate coated with 0.2% gelatin. After starvation in a serum-free low-sugar medium for 8 hours, the supernatant was discarded, the cells were washed with PBS buffer, and then a reaction solution (sugar-free DMEM containing 2 mM sodium pyruvate and 20 mM sodium lactate) was added, waiting for a sample test.
Triterpenoid compounds (a novel triterpenoid compound and Momordicoside G) were dissolved in dimethyl sulfoxide (DMSO) to prepare […] mother liquor. Through dilution with the foregoing reaction solution, the final concentrations of the triterpenoid compounds finally added into cell culture wells were 20 μM and 40 μM respectively, and the final concentration of the DMSO was 0.4%. A negative control was a reaction solution containing the DMSO with the same concentration (0.4%). Berberine, a positive control, was prepared into 40 mM with ultrapure water, the final concentrations for the test were 20 μM and 40 μM, and the final concentration of the DMSO was kept at 0.4%. To-be-tested samples were added into the cell reaction solution, and continued to be cultured for 6 hours. Then the glucose concentration in the culture medium (that is, the reaction solution) of each well was measured, and then the medium was discarded. After being washed with PBS, the cells were lysed with 250 mM NaOH, and the protein concentration was measured by using a Coomassie brilliant blue method. By reading an absorbance value, the concentration of glucose in the medium in all sample wells and the concentration of protein after lysis were determined by using a standard curve method, and a ratio of the two was used to measure an average gluconeogenesis level of the cells in the wells.

[2] = system: 3T3-L1 preadipocytes; test: Inhibitory activity against 3T3-L1 preadipocyte-induced differentiation (oil red O staining); assay type: cell-based, mouse; conditions: for content of lipid droplets after oil red O staining: 20 μM and 40 μM, compared with differentiation solution group
Method: A mouse embryonic fibroblast 3T3-L1 cell line (preadipocytes) was purchased from Shanghai Cell Bank, Chinese Academy of Sciences.
In the test, samples fell into an undifferentiation control group (cultured with a normal DMEM), a negative control group (cultured with a DMEM containing a differentiation solution), and a sample intervention group [cultured with a DMEM containing a differentiation solution+a or 40 μM triterpenoid compound or triterpenoid composition (novel triterpenoid compound:Momordicoside G=0.5, 1.0, or 1.5)]. Differentiation was induced by using a methylisobutylxanthine, dexamethasone and insulin, (MDI) induction medium (the induction medium is a differentiation solution, and the differentiation solution includes a high-sugar DMEM containing 0.5 mmol/L IBMX, 1 μmol/L DEX, 10 mg/L insulin, and 10% FCS). 3T3-L1 preadipocytes were cultured in an incubator with 5% CO2 and 37° C. saturated humidity, and cultured in the DMEM containing 10% FCS until the density of monolayer adherent cells was greater than or equal to 90%. After being washed with Hanks' balanced salt solution (HBSS), the cells were digested by trypsin, and then inoculated into a 6-well culture plate (1×10^5 cells/well). After cell contact inhibition, a fresh DMEM containing 10% FCS was used for fusion culture for 2 days. On the 3rd day (that is, the 0th day of differentiation), the cells were cultured in the differentiation solution for culture, and 0.1% DMSO and a novel triterpenoid compound (23R, 25E)-3β-hydroxy-23-methoxycucurbita-6,25-dien-5β,19-olide3-O-β-d-allopyranoside with concentration gradients of 20 μM and 40 μM or known compound Momordicoside G or a composition of the two were added in the sample intervention group. 0.1% DMSO was added in the negative control group. On the 2nd day of differentiation, the medium was replaced with a DMEM containing only 10 mg/L insulin and 10% FCS, the samples of each group continued to be cultured, and the medium was replaced once every 2 days until the experiment ended on the 8th day of differentiation. After the experiment ended, the medium was discarded, the cells were washed twice with cold PBS, and the cells were fixed with 4% paraformaldehyde solution for 60 min. After paraformaldehyde was removed and PBS was added for washing, the fixed cells were stained with an oil red O dye kit (Solarbio, G1262-4) for 1 hour, and the cells were washed with 60% isopropanol for 3 times to remove the uncolored oil red O dye and were photographed for observation. After the observation, the cells were lysed with lysate (containing 4% NP-40), and an absorbance value at 490 nm was measured, and calculated by using an OD value.

[3] = 20 μM, 6 hours culture, primary hepatocytes
[4] = 40 μM, 6 hours culture, primary hepatocytes

With `COc1ccc2cc3[n+](cc2c1OC)CCc1cc2c(cc1-3)OCO2` [berberine] the inhibition at 20 µM [1, 3] was 15.6% and the inhibition at 40 µM [1, 4] was 35.2%.
For `COC(C=C(C)C)C[C@@H](C)[C@H]1CC[C@@]2(C)C3C=CC45OC(=O)[C@]3(CC[C@]12C)C4CC[C@H](O[C@@H]1O[C@H](CO)[C@H](O)[C@H](O)[C@H]1O)C5(C)C` (stereo partly drawn) [novel triterpenoid compound, (23R, 25E)-3β-hydroxy-23-methoxycucurbita-6,25-dien-5β,19-olide3-O-β-d-allopyranoside], the “content of lipid droplets after oil red O staining” value [2] was “decreased significantly”, the inhibition at 20 µM ([2]; Mus musculus, 3T3-L1, 20 μM, 8th day of differentiation, oil red O, absorbance 490 nm, vs differentiation solution group, read-out: inhibition rate on differentiation of 3T3-L1 preadipocytes) was 35.5% and the inhibition at 40 µM ([2]; Mus musculus, 3T3-L1, 40 μM, 8th day of differentiation, oil red O, absorbance 490 nm, vs differentiation solution group, read-out: inhibition rate on differentiation of 3T3-L1 preadipocytes) was 56.4%. The inhibition at 20 µM ([1]; 6 h) was 32.1% and the inhibition at 40 µM ([1]; 6 h) was 28.9%.
With Momordicoside G the “content of lipid droplets after oil red O staining” value [2] was “decreased significantly”, the “inhibition rate on differentiation of 3T3-L1 preadipocytes” value ([2]; 20 μM, 8th day of differentiation, oil red O, absorbance 490 nm, vs differentiation solution group) was 23.77% and the “inhibition rate on differentiation of 3T3-L1 preadipocytes” value ([2]; 40 μM, 8th day of differentiation, oil red O, absorbance 490 nm, vs differentiation solution group) was 51.27%. For the same compound, the “hepatic gluconeogenesis inhibitory activity” value [1, 3] was 20.75% and the “hepatic gluconeogenesis inhibitory activity” value [1, 4] was 34.42%.

From patent US12006310B2, “Preparation and application of triterpenoids with effect of improving glucose and lipid metabolism disorders” (SERICULTURAL&AGRI-FOOD RESEARCH INSTITUTE GUANGDONG ACADEMY …, priority 2022, dated 2024)
